From US20230015647A1, “INHIBITORS OF HISTONE DEMETHYLASES (PFI-63 AND PFI-90) FOR THE TREATMENT OF CANCER AND FOR THE INHIBITION OF HISTONE DEMETHYLASE IN CELLS” (The United States of America,as represented by the …, priority 2019, published 2023)
“Also recorded” adds a separate entry of the source.

Legend:
[1] = tested on: PAX3-FOXO1 fusion transcription factor; assay: RH4 ALK-Luc luciferase reporter assay (PAX3-FOXO1 super enhancer activity); format: cell-based, human; conditions: RH4 ALK-Luc reporter
Experimental: The screen was performed using two derivatives of RH4 FP-RMS cells: • (1) “ALK-Luc cells”—RH4 cells expressing a pGreenFire green fluorescent protein (GFP)-luciferase reporter (SEQ ID NO: 1) controlled by the PAX3-FOXO1-dependent intronic ALK super enhancer (for reporting on PAX3-FOXO1 activity) (FIGS. 1 and 2); and • (2) “CMV-Luc cells”—control RH4 cells in which the reporter is transcribed from a constitutively active cytomegalovirus (CMV) promoter. An Example of visualization via the ALK-Luc reporter is depicted in FIG. 3.
The cells were enriched for reporter expression levels and used for assay development. A high throughput screening assay was developed after optimization of cell seeding density, length of incubation of cells prior to and post treatment with test compounds, and effect of passaging among other factors. The screen was designed to identify compounds that suppressed PAX3-FOXO1 activity without disrupting viability (at a short time points) or general transcription. The assay simultaneously monitors the function of the PAX3-FOXO1 super enhancer (also referred to as “ALK super enhancer”), general transcriptional activity as well as cell viability.
The visual summary of the screening strategy is illustrated in FIG. 4. ALK-Luc cells were seeded in both white-walled and white-bottomed 384-well plates (Perkin Elmer, Cat #6007658) for luciferase assays and in clear 384-well plates (Perkin Elmer, Cat #6007688) for viability assay (XTT reduction) by transferring 27 μL of cell suspensions (seeding 3000 cells per well) into each well. The plates were then transferred into an incubator for 18-20 h. The CMV-Luc cells were similarly seeded into white plates and incubated.
A pure compound library of 62,643 compounds consisting of synthetic and natural products described previously (Grohar et al., J Natl. Cancer Inst., 103: 962-978 (2011)) was then used in a high throughput screening campaign to identify inhibitors of PAX3-FOXO1. Stock DMSO Solutions of these compounds were used to prepare 100 μM solutions in growth medium in 384-well plates also containing 16 wells each of a positive control (Actinomycin D, Sigma, Cat #A1410) and negative control (DMSO). Screening compounds along with the positive and negative controls were added to assay plates by transferring 3 μL of the prepared 100 μM dilutions using an automated liquid handler (Agilent, Bravo). Treated plates were incubated for 24 h. At the end of this period, treated plates were allowed to equilibrate to room temperature for 30 minutes. SteadyLite Plus luciferase assay reagent powder (PerkinElmer, Cat #6066759) was reconstituted in its buffer in parallel and was also allowed to equilibrate to room temperature.
After transferring 30 μL of the luciferase assay reagent using a liquid handler, plates were further incubated at room temperature for 10 minutes. Finally, luminescence measurements were carried out using a multi-label microplate reader (BMG, Pherastar FSX) set in luminescence mode. Cell viability was assessed by adding XTT reagent (10 μL per well) in clear plates containing treated ALK-Luc cells. XTT treated plates were read using a plate reader in absorbance mode at 450 nm (PerkinElmer, Envision) after further incubation for 1 hour to allow cells to metabolize XTT to a colored formazan product. Luminescence and XTT absorbance values were normalized to the average of the negative controls on each plate and were calculated as a percentage of these controls. Performance of the screening assay was routinely monitored via calculation of Z-factor (Zhang et al., J. Biomol. Screen., 4: 67-73 (1999)) with Z′ for all plates found to be >0.7.
RH4 ALK-Luc and RH4 CMV-Luc cells were seeded into separate white-walled and bottomed 384-well plates and were incubated and treated with screen hits and epigenome compounds. The highest test concentration of these compounds (10-fold) were prepared from DMSO stock solutions via dilution in medium. […]

[2] = tested on: truncated KDM3B catalytic domain; assay: CPMG relaxation editing NMR binding assay; conditions: 100 μM
Text: (§1) A WaterLOGSY assay and a Carr-Purcell Meiboom-Gill (CPMG) based assay were used to investigate protein-ligand binding affinity between PFI-90 and a truncated KDM3B catalytic domain.
CPMG (Carr-Purcell-Meiboom-Gill) Relaxation Editing Proton NMR is another drug-discovery NMR experiment that may be used in conjunction with WaterLOGSY to orthogonally validate the presence of a reversible binding interaction of mild to high affinity from a small molecule to a label-free target. In contrast to WaterLOGSY, all peaks are phased above the X-axis. Instead, this experiment filters out the proportion of peak height that is contributed from the quantity of small molecule bound to a target of high molecular weight (e.g., a protein). Once the attenuation of peak height is equivalent to a 20% reduction, the compound is said to bind, with an increasing ratio of bound to unbound small molecules manifesting in increasing signal attenuation.

[3] = tested on: truncated KDM3B catalytic domain; assay: WaterLOGSY NMR binding assay; conditions: 100 μM
Text: as §1
In traditional proton NMR experiments, a series of peaks are generated that represent the structure of a solitary small molecule, whereas the WaterLOGSY experiment examines the behavior of a small molecule's peaks in the presence of a potential target. This is achieved by observing differences in interaction between a small molecule interacting with water co-occupying a binding cleft on a target as compared to water dispersed freely in solution. The experiment then depicts the ratio of bound to unbound small molecule by phasing proton NMR spectra on the X-axis in opposing directions depending on the magnitude of that ratio (i.e., increasing ratios above 1 will phase positively, decreasing ratios below 1 will phase negatively).

| Compound | Avg Absorbance @ 1 μM, ALK-Luc [1] | Avg Absorbance @ 10 μM, ALK-Luc [1] | binding (CPMG) [2] | binding (WaterLOGSY) [3] |
| --- | --- | --- | --- | --- |
| O=C(NNC(=O)c1ccccn1)c1ccccn1 [PFI-82] | 112.4 | 107.1 | – | – |
| NNC(=O)c1ccc(C(=O)NN)o1 [PFI-79] | 97.0 | 97.6 | – | – |
| COCc1cccc(C(=O)NNC(=O)c2ccccn2)c1 [PFI-87] | 115.5 | 120.4 | – | – |
| CCC(CC)C(=O)NNC(=O)c1ccccn1 [PFI-81] | 97.7 | 89.1 | – | – |
| CC(=O)NNC(=O)c1ccc2ccccc2n1 [PFI-80] | 90.1 | 96.6 | – | – |
| O=C(Cc1ccc(Cl)cc1)NNC(=O)c1ccccn1 [PFI-83] | 97.8 | 32.2 | – | – |
| Cc1cc(C)cc(OCC(=O)NNC(=O)c2ccccn2)c1 [PFI-84] | 99.4 | 56.5 | – | – |
| O=CNNC(=O)c1ccccn1 [PFI-70] | 99.7 | 93.3 | – | – |
| CCCC(=O)NNC(=O)c1ccccn1 [PFI-74] | 102.4 | 94.7 | – | – |
| Cc1cc(C)cc(C(=O)NNC(=O)c2ccc(O)cc2)c1 [PFI-86] | 97.7 | 84.1 | – | – |
| Cc1cccc(C(=O)NNC(=O)c2cccc(C)c2)c1 [PFI-67] | 94.6 | 112.8 | – | – |
| O=C(NNC(=O)c1ccccn1)c1ccccc1 [PFI-65] | 103.5 | 109.2 | – | – |
| O=C(NNC(=O)c1cccc(C(=O)NNC(=O)c2ccc(Cl)c(Cl)c2)n1)c1ccc(Cl)c(Cl)c1 [PFI-72] | – | 91.1 | – | – |
| CC(=O)NNC(=O)c1cnccn1 [PFI-76] | 105.6 | 100.2 | – | – |
| CC(=O)NNC(=O)c1ccccn1 [PFI-68] | 95.0 | 98.0 | – | – |
| Cc1cccc(C(=O)NNC(=O)c2ccccc2)c1 [PFI-73] | 98.3 | 122.8 | – | – |
| Cc1nc(C)c(C(=O)NN)cc1C(=O)NN [PFI-78] | 100.3 | 95.3 | – | – |
| O=CNNC(=O)c1cnccn1 [PFI-77] | 95.8 | 96.5 | – | – |
| NNC(=O)c1ccc(C(=O)NN)nc1 [PFI-71] | 100.1 | 108.6 | – | – |
| Cc1nc(C)c(C(=O)NNC(=O)c2ccccc2)cc1C(=O)NNC(=O)c1ccccc1 [PFI-75] | 100.2 | 110.5 | – | – |
| O=C(O)CCC(=O)C(=O)O [Compound 2-OG, 2-oxoglutaric acid, reference compound] | – | – | did not bind; also recorded: does not bind | did not bind; also recorded: does not bind |
| CS(=O)(=O)NCCc1ccc(C(=O)NNC(=O)c2ccccn2)cc1 [PFI-85] | 99.7 | 100.2 | – | – |
| CC(C)CC(=O)NNC(=O)c1ccco1 [PFI-89] | 95.1 | 92.5 | – | – |
| NNC(=O)c1cccc(C(=O)NN)n1 [PFI-66] | 91.6 | 91.3 | – | – |
| Cc1cccc(C(=O)NNC(=O)c2ccccc2)c1 [PFI-88] | 91.6 | 121.4 | – | – |
| CCC(=O)NNC(=O)c1ccccn1 [PFI-69] | 104.3 | 94.4 | – | – |
